Laboratory results reported in patent US20030232851A1, “Viral treatment” (The Procter & Gamble Company, priority 1999, published 2003).

How the values were obtained:
[1] = tested on: HIV-1 cell line, U937IIIB; assay: Long term in vitro study, U937IIIB, reverse transcriptase; assay type: cell-based; design: reverse transcriptase data: unit not given here
Description: (§1) A microtiter-based reveres transcriptase (RT) reaction is utilized (Buckheit et al (1991) AIDS Research and Human Retroviruses 7:295-302). Tritiated thymidine triphosphate (NEN)(TTP) is resuspended in distilled water at 5 Ci/ml. Poly rA and oligo dT are prepared as a stock solution which is kept at −20° C. The RT reaction buffer is prepared fresh on a daily basis and consists of 125 μl 1M EGTA, 125 μl water, 125 μl Triton X-100, 50 μl Tris (pH 7.4), 50 μl 1 MDDT, and 40 μl 1M MgCl2. These three solutions are mixed together in a ratio of 1 part TTP, 2.5 parts poly rA:oligo dT, 2.5 parts reaction buffer and 4 parts distilled water. Ten microliters of this reaction mixture is placed in a round bottom microtiter place and 15 μl of virus containing supernatant is added and mixed. The plate is incubated at 37° C. for 60 minutes. Following reaction, the reaction volume is spotted onto filter mats, washed 6 times for 5 minutes each in a 5% sodium phosphate buffer, 2 times for 1 minute each in distilled water, 2 times for 1 minute each in 70% ethanol, and then dried. The dried filter mat is placed in a plastic sample bag, Betaplate scintillation fluid is added and the bag is heat sealed. Incorporated radioactivity is quantified utilizing a Wallac Microbeta scintillation counter.
(§2) Acute infection of most established human cell lines with HIV-1 results in the eventual establishment of a constitutive virus-producing chronically infected cell line. The cells can be passaged for long periods of time in culture without loss of virus production. These cells may be utilized to evaluate the effects of anti-HIV compounds on syncytium formation or to evaluate the effects of anti-HIV compounds on levels of virus production from these cells. […] Each of the cells contains an integrated HIV genome or provirus. Chronically infected CEM, H9 and U937 cell lines have been prepared and cultured by Southern Research Institute, Frederick Md. and are available from them.
(§3) CEM-SS cells chronically infected with HIV isolate, for example SKI (CEM-SKI) are cultured in RPMI1640 tissue culture medium supplemented with 10% fetal bovine serum and antibiotics. […] CEM-SKI or other infected cells with no added drug are used as the control cells. Cells are allowed to grow to a density of approximately 1×10^6 cells/ml and are then passaged at a 1:10 dilution. […] The drug concentration in the flask is then increased two-fold and the cells maintained as above.
(§4) The cell populations contain integrated copies of the HIV genome and constitutively produce HIV at relatively high levels or are latently infected and only produce virus after stimulation with phorbol esters, tumor necrosis factor or IL6 (U1 and ACH2). Reductions in virus products were observed when quantifying supernatant reverse transcriptase activity,
A long term in vitro study of 2-(2-thienyl)-imidazolo [4,5-b]pyridine against an HIV-1 cell line, U9371IIIB was conducted at three different levels. The results with U937IIIB cells were reported at weekly intervals.

[2] = tested on: U937KN1272, a protease resistant strain; assay: Long term in vitro study, U937KN1272, reverse transcriptase; assay type: cell-based, HIV
Description: as §1, §2, §3, §4
Similar results are obtained with U937KN1272, a protease resistant strain, reported below.

c1csc(-c2nc3cccnc3[nH]2)c1 [2-(2-thienyl)-imidazolo [4,5-b]pyridine]
reverse transcriptase data ([1]; 7 μg/ml, day 4): 2100
reverse transcriptase data ([1]; 7 μg/ml, day 11): 2205
reverse transcriptase data ([1]; 7 μg/ml, day 18): 2245
reverse transcriptase data ([1]; 7 μg/ml, day 25): 2212
reverse transcriptase data ([1]; 7 μg/ml, day 32): 2347
reverse transcriptase data ([1]; 7 μg/ml, day 39): 2516
reverse transcriptase data ([1]; 7 μg/ml, day 46): 1968
reverse transcriptase data ([1]; 7 μg/ml, day 53): 1695
reverse transcriptase data ([1]; 7 μg/ml, day 60): 2887
reverse transcriptase data ([1]; 7 μg/ml, day 67): 4170
reverse transcriptase data ([1]; 7 μg/ml, day 71): 7786
reverse transcriptase data ([1]; 7 μg/ml, day 74): 6119
reverse transcriptase data ([1]; 7 μg/ml, day 88): 6880
reverse transcriptase data ([1]; 7 μg/ml, day 95): 5041
reverse transcriptase data ([1]; 7 μg/ml, day 102): 5072
reverse transcriptase data ([1]; 7 μg/ml, day 109): 7437
reverse transcriptase data ([1]; 15 μg/ml, day 4): 1188
reverse transcriptase data ([1]; 15 μg/ml, day 11): 713
reverse transcriptase data ([1]; 15 μg/ml, day 18): 993
reverse transcriptase data ([1]; 15 μg/ml, day 25): 1900
reverse transcriptase data ([1]; 15 μg/ml, day 32): 2003
reverse transcriptase data ([1]; 15 μg/ml, day 39): 1326
reverse transcriptase data ([1]; 15 μg/ml, day 46): 987
reverse transcriptase data ([1]; 15 μg/ml, day 53): 1221
reverse transcriptase data ([1]; 15 μg/ml, day 60): 1205
reverse transcriptase data ([1]; 15 μg/ml, day 67): 2314
reverse transcriptase data ([1]; 15 μg/ml, day 71): 4265
reverse transcriptase data ([1]; 15 μg/ml, day 74): 5689
reverse transcriptase data ([1]; 15 μg/ml, day 88): 6832
reverse transcriptase data ([1]; 15 μg/ml, day 95): 4988
reverse transcriptase data ([1]; 15 μg/ml, day 102): 3912
reverse transcriptase data ([1]; 15 μg/ml, day 109): 4294
reverse transcriptase data ([1]; 30 μg/ml, day 4): 996
reverse transcriptase data ([1]; 30 μg/ml, day 11): 180
reverse transcriptase data ([1]; 30 μg/ml, day 18): 417
reverse transcriptase data ([1]; 30 μg/ml, day 25): 588
reverse transcriptase data ([1]; 30 μg/ml, day 32): 716
reverse transcriptase data ([1]; 30 μg/ml, day 39): 625
reverse transcriptase data ([1]; 30 μg/ml, day 46): 542
reverse transcriptase data ([1]; 30 μg/ml, day 53): 208
reverse transcriptase data ([1]; 30 μg/ml, day 60): 504
reverse transcriptase data ([1]; 30 μg/ml, day 67): 782
reverse transcriptase data ([1]; 30 μg/ml, day 71): 1414
reverse transcriptase data ([1]; 30 μg/ml, day 74): 1059
reverse transcriptase data ([1]; 30 μg/ml, day 88): 1811
reverse transcriptase data ([1]; 30 μg/ml, day 95): 1988
reverse transcriptase data ([1]; 30 μg/ml, day 102): 1695
reverse transcriptase data ([1]; 30 μg/ml, day 109): 1542
reverse transcriptase data on continuation (in words) ([1]; run through 242 days): data remained consistent
reverse transcriptase data ([2]; 7 μg/ml, day 4): 3503
reverse transcriptase data ([2]; 7 μg/ml, day 11): 10001
reverse transcriptase data ([2]; 7 μg/ml, day 18): 14176
reverse transcriptase data ([2]; 7 μg/ml, day 25): 14084
reverse transcriptase data ([2]; 7 μg/ml, day 32): 9919
reverse transcriptase data ([2]; 7 μg/ml, day 39): 8890
reverse transcriptase data ([2]; 7 μg/ml, day 46): 9238
reverse transcriptase data ([2]; 7 μg/ml, day 53): 9074
reverse transcriptase data ([2]; 7 μg/ml, day 60): 7460
reverse transcriptase data ([2]; 7 μg/ml, day 67): 7863
reverse transcriptase data ([2]; 7 μg/ml, day 71): 8402
reverse transcriptase data ([2]; 7 μg/ml, day 74): 8976
reverse transcriptase data ([2]; 7 μg/ml, day 88): 8522
reverse transcriptase data ([2]; 7 μg/ml, day 95): 9358
reverse transcriptase data ([2]; 7 μg/ml, day 102): 9221
reverse transcriptase data ([2]; 7 μg/ml, day 109): 8245
reverse transcriptase data ([2]; 15 μg/ml, day 4): 2354
reverse transcriptase data ([2]; 15 μg/ml, day 11): 7962
reverse transcriptase data ([2]; 15 μg/ml, day 18): 11866
reverse transcriptase data ([2]; 15 μg/ml, day 25): 13386
reverse transcriptase data ([2]; 15 μg/ml, day 32): 10413
reverse transcriptase data ([2]; 15 μg/ml, day 39): 8675
reverse transcriptase data ([2]; 15 μg/ml, day 46): 8124
reverse transcriptase data ([2]; 15 μg/ml, day 53): 7645
reverse transcriptase data ([2]; 15 μg/ml, day 60): 5534
reverse transcriptase data ([2]; 15 μg/ml, day 67): 4321
reverse transcriptase data ([2]; 15 μg/ml, day 71): 5364
reverse transcriptase data ([2]; 15 μg/ml, day 74): 6974
reverse transcriptase data ([2]; 15 μg/ml, day 88): 4297
reverse transcriptase data ([2]; 15 μg/ml, day 95): 5224
reverse transcriptase data ([2]; 15 μg/ml, day 102): 5361
reverse transcriptase data ([2]; 15 μg/ml, day 109): 7833
reverse transcriptase data ([2]; 30 μg/ml, day 4): 1209
reverse transcriptase data ([2]; 30 μg/ml, day 11): 4377
reverse transcriptase data ([2]; 30 μg/ml, day 18): 6376
reverse transcriptase data ([2]; 30 μg/ml, day 25): 9293
reverse transcriptase data ([2]; 30 μg/ml, day 32): 9903
reverse transcriptase data ([2]; 30 μg/ml, day 39): 6852
reverse transcriptase data ([2]; 30 μg/ml, day 46): 2502
reverse transcriptase data ([2]; 30 μg/ml, day 53): 2760
reverse transcriptase data ([2]; 30 μg/ml, day 60): 2478
reverse transcriptase data ([2]; 30 μg/ml, day 67): 1643
reverse transcriptase data ([2]; 30 μg/ml, day 71): 4820
reverse transcriptase data ([2]; 30 μg/ml, day 74): 3270
reverse transcriptase data ([2]; 30 μg/ml, day 88): 3184
reverse transcriptase data ([2]; 30 μg/ml, day 95): 2031
reverse transcriptase data ([2]; 30 μg/ml, day 102): 3427
reverse transcriptase data ([2]; 30 μg/ml, day 109): 1356
